Each structure is given as a SMILES string.

In the assay the target is HIV-1 PR (Human immunodeficiency virus type 1 group M subtype B, UniProt P04585). The experiment in a line: HIV-protease inhibitory activity assay (FRET peptide substrate). The class given is biochemical. The following applies: Test Example 1. On the procedure: Test Example 1: HIV-Protease Inhibitory Activity Assay
The HIV-1 PR assay was performed by using a FRET (Fluorescence Resonance Energy Transfer) peptide substrate (AnaSpec, Inc., Fremont, Calif.). Initially in the intact FRET peptide, the fluorescence of HiLyte Fluor 488 is quenched by QXL 520. Upon substrate cleavage by PR, the fluorescence is recovered and can be monitored. Test compounds diluted in DMSO was plated to the wells of 384-well plate. Then, mixed with assay buffer (0.1 mol/L NaAc containing 0.5 mol/L NaCl, 1 mmol/L EDTA, 1 mmol/L DTT, and 0.05% Tween 20, pH 4.8) in the presence or absence of HIV-1 PR (0.83 ng), and let it stand for 5 minutes at room temperature. Background fluorescence intensity was measured and let it stand for another 15 minutes at room temperature. The enzyme reaction was started by adding substrate diluted in assay buffer at final concentration of 2 μmol/L, and let it stand for 60 minutes at room temperature. After 60 minutes, the fluorescence intensity was measured. Fluorescence intensity was measured with excitation and emission wavelengths of 485 nm and 535 nm, respectively.
IC50 values were determined using non-linear regression four-parameter logistic equation, y=A+((B−A)/(1+((C/x)̂D))) where A=minimum inhibition, B=maximum inhibition, C=log IC50, D=slope factor, x=concentration of compound and y=% inhibition.
With `CC(C)CN(CC(O)C(Cc1ccc(OCc2ccc(C(=O)O)c(-c3ccc(F)cc3F)n2)cc1)NC(=O)OC1COC2(C)OCCC12)S(=O)(=O)c1ccc2ncsc2c1` (stereo not shown) [Compound I-156], the IC50 – broadly, the concentration that inhibits the measured activity by half – is 1.3 nM. The value for `CC(C)CN(CC(O)C(Cc1ccc(OCc2cnc(C(=O)O)c(-c3ccc(F)cc3F)c2)cc1)NC(=O)OC1COC2(C)OCCC12)S(=O)(=O)c1ccc2ncsc2c1` (stereo not shown) [Compound I-157] was 1.22 nM; that for `CC(C)CN(CC(O)C(Cc1ccc(OCc2ccccc2-c2ccccc2C(=O)N(C)C)cc1)NC(=O)OC1COC2(C)OCCC12)S(=O)(=O)c1ccc2ncsc2c1` (stereo not shown) [Compound I-160] was 0.96 nM. The same measure for `CC(C)CN(CC(O)C(Cc1ccc(OCc2ccc(-c3ccccc3)cc2C(=O)N(C)C)cc1)NC(=O)OC1COC2(C)OCCC12)S(=O)(=O)c1ccc2ncsc2c1` (stereo not shown) [Compound I-161]: 0.94 nM; for `CC(C)CN(CC(O)C(Cc1ccc(OCc2ccc3ccccc3c2C(N)=O)cc1)NC(=O)OC1COC2(C)OCCC12)S(=O)(=O)c1ccc2ncsc2c1` (stereo not shown) [Compound I-162]: 0.96 nM; for `CC(C)CN(CC(O)C(Cc1ccc(OCc2ccc3ccccc3c2C(=O)N(C)C)cc1)NC(=O)OC1COC2(C)OCCC12)S(=O)(=O)c1ccc2ncsc2c1` (stereo not shown) [Compound I-163]: 1.1 nM. The same measure for `CC1(C)CCc2sc(-c3ccc(CCCN(CC(O)C(Cc4ccccc4)NC(=O)OC4COC5(C)OCCC45)S(=O)(=O)c4ccc5ncsc5c4)cc3)c(C(=O)O)c2C1` (stereo not shown) [Compound I-164]: 2.07 nM. For `CC1(C)CCc2sc(-c3ccc(CN(CC(O)C(Cc4ccccc4)NC(=O)OC4COC5(C)OCCC45)S(=O)(=O)c4ccc5ncsc5c4)cc3)c(C(=O)O)c2C1` (stereo not shown) [Compound I-167], the IC50 worked out at 7.1 nM.

On to `COc1ccc(S(=O)(=O)N(CC(C)C)CC(O)C(Cc2ccc(OCCNC(=O)c3cccc(Cl)c3O)cc2)NC(=O)OC2COC3(C)OCCC23)cc1` (stereo not shown) [Compound I-169], for which the IC50 worked out at 0.88 nM.

As for `COc1ccc(S(=O)(=O)N(CC(C)C)CC(O)C(Cc2ccc(OCCNC(=O)c3cc(Cl)ccc3O)cc2)NC(=O)OC2COC3(C)OCCC23)cc1` (stereo not shown) [Compound I-170], the midpoint of inhibition, the IC50, lay at 0.91 nM.

On to `COc1ccc(S(=O)(=O)N(CC(C)C)CC(O)C(Cc2ccc(OCCNC(=O)c3cc(C)cc(C)c3O)cc2)NC(=O)OC2COC3(C)OCCC23)cc1` (stereo not shown) [Compound I-171], for which the IC50 worked out at 0.94 nM. `COc1ccc(S(=O)(=O)N(CC(C)C)CC(O)C(Cc2ccc(OCCNC(=O)c3cc(-c4ccc(F)cc4F)ccc3O)cc2)NC(=O)OC2COC3(C)OCCC23)cc1` (stereo not shown) [Compound I-172] came in with an IC50 of 1.02 nM. The value for `CC(C)CN(CC(O)C(Cc1ccc(OCc2ccccc2-c2ccc3c(c2)C(=O)C(c2ccc(F)cc2)C3=O)cc1)NC(=O)OC1COC2(C)OCCC12)S(=O)(=O)c1ccc2c(c1)OCO2` (stereo not shown) [Compound I-174] was 2.08 nM; that for `COc1ccc(S(=O)(=O)N(CC(C)C)CC(O)C(Cc2ccc(OCc3ccccc3-c3ccc4c(c3)C(=O)C(c3ccccc3C)C4=O)cc2)NC(=O)OC2COC3(C)OCCC23)cc1` (stereo not shown) [Compound I-176] was 1.01 nM; that for `COc1ccc(S(=O)(=O)N(CC(C)C)CC(O)C(Cc2ccc(OCc3ccccc3-c3ccc4c(C(=O)O)csc4c3)cc2)NC(=O)OC2COC3(C)OCCC23)cc1` (stereo not shown) [Compound I-179] was 1.1 nM. The value for `COc1ccc(S(=O)(=O)N(CC(C)C)CC(O)C(Cc2ccc(OCc3ccccc3-c3ccc4[nH]c(=O)c(-c5ccc(Oc6ccccc6)cc5)c(O)c4c3)cc2)NC(=O)OC2COC3(C)OCCC23)cc1` (stereo not shown) [Compound I-180] was 2.71 nM; that for `COc1ccc(S(=O)(=O)N(CC(C)C)CC(O)C(Cc2ccc(-c3ccc(-c4sc5c(c4C(=O)O)CC(C)(C)CC5)cc3)cc2)NC(=O)OC2COC3(C)OCCC23)cc1` (stereo not shown) [Compound I-183] was 2.39 nM; that for `COc1ccc(S(=O)(=O)N(CC(C)C)CC(O)C(Cc2ccc(OC3CCN(Cc4sc5c(c4C(=O)O)CC(C)(C)CC5)C3)cc2)NC(=O)OC2COC3(C)OCCC23)cc1` (stereo not shown) [Compound I-184] was 1.64 nM. The same measure for `COc1ccc(S(=O)(=O)N(CC(C)C)CC(O)C(Cc2ccc(OCc3cnn(-c4ccccc4)c3-c3sc4c(c3C(=O)O)CC(C)(C)CC4)cc2)NC(=O)OC2COC3(C)OCCC23)cc1` (stereo not shown) [Compound I-185]: 1.71 nM. On to `COc1ccc(S(=O)(=O)N(CC(C)C)CC(O)C(Cc2ccc(OCc3cccc(OC)c3-c3sc4c(c3C(=O)O)CC(C)(C)CC4)cc2)NC(=O)OC2COC3(C)OCCC23)cc1` (stereo not shown) [Compound I-186], for which the IC50 stood at 2.14 nM. The value for `COc1ccc(S(=O)(=O)N(CC(C)C)CC(O)C(Cc2ccc(OCc3nccnc3-c3sc4c(c3C(=O)O)CC(C)(C)CC4)cc2)NC(=O)OC2COC3(C)OCCC23)cc1` (stereo not shown) [Compound I-187] was 2.21 nM. Turning to `CC1(C)CCc2sc(-c3cccnc3COc3ccc(CC(NC(=O)OC4COC5(C)OCCC45)C(O)CN(CC4CCCC4)S(=O)(=O)c4ccc5c(c4)CCO5)cc3)c(C(=O)O)c2C1` (stereo not shown) [Compound I-189], the midpoint of inhibition, the IC50, lay at 2.53 nM. The same measure for `COc1ccc(S(=O)(=O)N(CC(C)C)CC(O)C(Cc2ccc(N3CCc4cccc(-c5sc6c(c5C(=O)O)CC(C)(C)CC6)c4C3)cc2)NC(=O)OC2COC3(C)OCCC23)cc1` (stereo not shown) [Compound I-191]: 2.22 nM; for `COc1ccc(S(=O)(=O)N(CC(C)C)C[C@@H](O)[C@H](Cc2ccc(NC(=O)Nc3sc4c(c3C(=O)O)CC(C)(C)CC4)cc2)NC(=O)O[C@H]2CO[C@@]3(C)OCC[C@@H]23)cc1` [Compound I-192]: 2.27 nM. The value for `COc1ccc(S(=O)(=O)N(CC(C)C)CC(O)C(Cc2ccc(-c3ccccc3-c3sc4c(c3C(=O)O)CC(C)(C)CC4)cc2)NC(=O)OC2COC3(C)OCCC23)cc1` (stereo not shown) [Compound I-193] was 3.48 nM; that for `COc1ccc(S(=O)(=O)N(CC(C)C)CC(O)C(Cc2ccc(OCC3CCCN3Cc3sc4c(c3C(=O)O)CC(C)(C)CC4)cc2)NC(=O)OC2COC3(C)OCCC23)cc1` (stereo not shown) [Compound I-194] was 1.63 nM. The value for `COc1ccc(S(=O)(=O)N(CC(C)C)CC(O)C(Cc2ccc(OC3CCCN(Cc4sc5c(c4C(=O)O)CC(C)(C)CC5)C3)cc2)NC(=O)OC2COC3(C)OCCC23)cc1` (stereo not shown) [Compound I-198] was 1.95 nM; that for `COc1ccc(S(=O)(=O)N(CC2CCCC2)CC(O)C(Cc2ccc(OCc3nn(C)cc3-c3sc4c(c3C(=O)O)CC(C)(C)CC4)cc2)NC(=O)OC2COC3(C)OCCC23)cc1` (stereo not shown) [Compound I-199] was 2.35 nM; that for `COc1ccc(S(=O)(=O)N(CC(C)C)CC(O)C(Cc2ccc(OC3CCN(c4ccc(C#N)cc4-c4sc5c(c4C(=O)O)CC(C)(C)CC5)C3)cc2)NC(=O)OC2COC3(C)OCCC23)cc1` (stereo not shown) [Compound I-200] was 5.08 nM. In the case of `COc1ccc(S(=O)(=O)N(CC(C)C)CC(O)C(Cc2ccc(OC3CCN(c4ccc(C#N)cc4-c4sc5c(c4C(=O)O)CC(C)(C)CC5)CC3)cc2)NC(=O)OC2COC3(C)OCCC23)cc1` (stereo not shown) [Compound I-201], the IC50 turned out to be 10.2 nM.

In turn, `COc1ccc(S(=O)(=O)N(CC(C)C)CC(O)C(Cc2ccc(C3=CCC(c4sc5c(c4C(=O)O)CC(C)(C)CC5)CC3)cc2)NC(=O)OC2COC3(C)OCCC23)cc1` (stereo not shown) [Compound I-202] came in with an IC50 of 12.1 nM. The same measure for `COc1ccc(S(=O)(=O)N(CC(C)C)CC(O)C(Cc2ccc(OC3CCC(c4sc5c(c4C(=O)O)CC(C)(C)CC5)CC3)cc2)NC(=O)OC2COC3(C)OCCC23)cc1` (stereo not shown) [Compound I-203]: 5.02 nM; for `COc1ccc(S(=O)(=O)N(CC(C)C)CC(O)C(Cc2ccc(OCC3CCN(c4ccccc4-c4sc5c(c4C(=O)O)CC(C)(C)CC5)C3)cc2)NC(=O)OC2COC3(C)OCCC23)cc1` (stereo not shown) [Compound I-204]: 2.04 nM. The value for `COc1ccc(S(=O)(=O)N(CC(C)C)CC(O)C(Cc2ccc(OC3CCN(Cc4ccccc4-c4sc5c(c4C(=O)O)CC(C)(C)CC5)C3)cc2)NC(=O)OC2COC3(C)OCCC23)cc1` (stereo not shown) [Compound I-207] was 2.1 nM; that for `COc1ccc(S(=O)(=O)N(CC(C)C)CC(O)C(Cc2ccc(NC(=O)c3sc4c(c3C(=O)O)CC(C)(C)CC4)cc2)NC(=O)OC2COC3(C)OCCC23)cc1` (stereo not shown) [Compound I-208] was 1.86 nM.

Consider `COc1ccc(S(=O)(=O)N(CC(C)C)CC(O)C(Cc2ccc(N3CCN(c4ccc(-c5sc6c(c5C(=O)O)CC(C)(C)CC6)cc4)CC3)cc2)NC(=O)OC2COC3(C)OCCC23)cc1` (stereo not shown) [Compound I-209], for which 3.07 nM corresponded to half-maximal inhibition (IC50). `COc1ccc(S(=O)(=O)N(CC2CCCC2)CC(O)C(Cc2ccc(OC3CCN(C(=O)c4ccc(Cl)cc4-c4sc5c(c4C(=O)O)CC(C)(C)CC5)C3)cc2)NC(=O)OC2COC3(C)OCCC23)cc1` (stereo not shown) [Compound I-210] returned an IC50 of 2.15 nM. The value for `COc1ccc(S(=O)(=O)N(CC(C)C)CC(O)C(Cc2ccc(OCc3ccccc3-c3ccc(Cn4nc(C(=O)O)c5c4CCC(C)(C)C5)cc3)cc2)NC(=O)OC2COC3(C)OCCC23)cc1` (stereo not shown) [Compound I-213] was 1.76 nM; that for `COc1ccc(S(=O)(=O)N(CC(C)C)CC(O)C(Cc2ccc(N3CCc4ccc(-c5sc6c(c5C(=O)O)CC(C)(C)CC6)cc4C3)cc2)NC(=O)OC2COC3(C)OCCC23)cc1` (stereo not shown) [Compound I-215] was 2.01 nM. The compound `COc1ccc(S(=O)(=O)N(CC2CCCC2)CC(O)C(Cc2ccc(OCc3ccccc3Cn3nc4c(c3C(=O)O)CC(C)(C)CC4)cc2)NC(=O)OC2COC3(C)OCCC23)cc1` (stereo not shown) [Compound I-216] yielded an IC50 of 1.93 nM.
